Experimental findings from patent US20240092802A1, “MU-OPIOID RECEPTOR AGONISTS AND USES THEREFOR” (Kures, Inc., priority 2020, published 2024) are described below.

The target of one data set is Mouse MOR (Mus musculus (Mouse), UniProt P42866). The data set is described as follows: BRET G protein activation assay, mouse MOR in transfected HEK-293T cells. In kind it is cell-based. The following applies: mean ± SEM. An excerpt:
(§1) Transfection. Human or mouse MOR cDNA was transfected alongside GαoB with RLuc8 inserted at position 91 (GαoB-RLuc8), Gβ1 (β1), and Gγ2 fused to the full-length mVenus at its N terminus (mVenus γ2) into HEK-293T cells (5×10^6 cells/plate) in 10-cm dishes using PEI (Polysciences Inc.; Warrington, PA) in a 1:1 ratio diluted in Opti-MEM (Life Technologies Corp.; Grand Island, NY) to assay for G protein activation as described previously (Rives, M.-L. et al. J. Biol. Chem. 2012, 287, 27050-4; Negri, A.; Rives, M.-L.; Caspers, M. J. et al. J. Chem. Inf. Model. 2013, 53, 521-526). Cells were maintained in the Dulbecco's Modified Eagle Medium (high glucose #11965; Life Technologies) supplemented with 10% FBS (Premium Select, Atlanta Biologicals; Atlanta, GA) and 100 U/mL penicillin and 100 μg/mL streptomycin (#15140, Life Technologies). After 24 hours the media was changed, and the experiment was performed 24 hours later (48 hours after transfection).
(§2) BRET. Transfected cells were dissociated and resuspended in phosphate-buffered saline (PBS). Approximately 200,000 cells/well were added to a black-framed, white well 96-well plate (#60050; Perkin Elmer; Waltham, MA). The microplate was centrifuged and the cells were resuspended in PBS. Then 5 μM of the luciferase substrate coelenterazine H was added to each well for 5 minutes. Following coelenterazine H addition, ligands were added and the BRET signal was measured at 5 minutes on a PHERAstar FS plate reader. Quantification of the BRET signal required calculating the ratio of the light emitted by the energy acceptor, mVenus (510-540 nm), over the light emitted by the energy donor, RLuc8 (485 nm). […] Dose response curves were fit using three-parameter logistics equation in GraphPad Prism 6.
On the technique in general: In BRET a luciferase serves as donor, and the signal depends on an acceptor being close.

In the next data set the target is Human MOR (Homo sapiens (Human), UniProt P35372). The data set is described as follows: BRET G protein activation assay, human MOR in transfected HEK-293T cells. It is filed as cell-based.
Excerpt: as §1, §2

Data set [1] in a line: Pharmacokinetics and brain distribution after single intraperitoneal dose in male C57BL/6 mice. The following applies: for MRT last: MRTlast. On the procedure: For each compound, a group of twenty-four male mice were administered with a solution formulation of the drug in normal saline intraperitoneally at a dose of 10 mg/kg. Blood samples (approximately 60 μL) were collected under light isoflurane anesthesia from the retro orbital plexus at 0.08, 0.25, 0.5, 1, 2, 4, 8 and 24 hr. Plasma samples were separated by centrifugation of whole blood and stored below −70° C. until bioanalysis. Immediately after collection of blood, brain samples were collected from each mouse at 0.08, 0.25, 0.5, 1, 2, 4, 8 and 24 hr. Brain samples were homogenized using ice-cold phosphate buffer saline (pH 7.4) and homogenates were stored below −70° C. until analysis. Total homogenate volume was three times the tissue weight. All samples were processed for analysis by protein precipitation using acetonitrile (ACN) and analyzed with fit-for-purpose LC/MS/MS method (LLOQ—1.01 ng/mL in plasma and brain). Pharmacokinetic parameters were calculated using the non-compartmental analysis tool of Phoenix WinNonlin® (Version 6.3).

Where [2] appears, read: BRET G protein activation, HEK-293T, mean ± SEM, read-out: EC50 Human MOR.
The mark [3] stands for this setting: brain, i.p. 10 mg/kg, male C57BL/6 mice.
[4] abbreviates: i.p. 10 mg/kg, male C57BL/6 mice.
The mark [5] stands for this setting: male, C57BL/6, mouse, in vivo, ip, 10 mg/kg.
The mark [6] stands for this setting: male, C57BL/6, mouse, in vivo, ip, 10 mg/kg, brain, i.p. 10 mg/kg, male C57BL/6 mice.
The mark [7] stands for this setting: male, C57BL/6, mouse, in vivo, ip, 10 mg/kg, plasma, i.p. 10 mg/kg, male C57BL/6 mice.

Structures are written as SMILES. Where “and” joins values, the source holds several entries; their conditions need not be identical. Identical values can stand only once. Counter-ions that a name gives are not always drawn. Like-named read-outs stand apart in the source and are kept apart here.

Human MOR, sequence (P35372 whole entry): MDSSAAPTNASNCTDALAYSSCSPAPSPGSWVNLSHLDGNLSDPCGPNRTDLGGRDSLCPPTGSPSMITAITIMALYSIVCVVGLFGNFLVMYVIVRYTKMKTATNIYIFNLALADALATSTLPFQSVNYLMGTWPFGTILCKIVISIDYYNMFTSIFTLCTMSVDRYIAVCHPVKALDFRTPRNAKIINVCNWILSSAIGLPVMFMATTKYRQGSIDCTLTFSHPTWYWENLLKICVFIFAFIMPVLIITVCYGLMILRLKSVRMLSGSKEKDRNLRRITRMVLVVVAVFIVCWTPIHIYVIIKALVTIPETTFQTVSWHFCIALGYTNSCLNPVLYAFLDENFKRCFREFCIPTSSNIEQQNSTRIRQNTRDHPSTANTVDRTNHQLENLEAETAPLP
Mouse MOR, sequence (P42866 whole entry, looked up, the tested form may be a part): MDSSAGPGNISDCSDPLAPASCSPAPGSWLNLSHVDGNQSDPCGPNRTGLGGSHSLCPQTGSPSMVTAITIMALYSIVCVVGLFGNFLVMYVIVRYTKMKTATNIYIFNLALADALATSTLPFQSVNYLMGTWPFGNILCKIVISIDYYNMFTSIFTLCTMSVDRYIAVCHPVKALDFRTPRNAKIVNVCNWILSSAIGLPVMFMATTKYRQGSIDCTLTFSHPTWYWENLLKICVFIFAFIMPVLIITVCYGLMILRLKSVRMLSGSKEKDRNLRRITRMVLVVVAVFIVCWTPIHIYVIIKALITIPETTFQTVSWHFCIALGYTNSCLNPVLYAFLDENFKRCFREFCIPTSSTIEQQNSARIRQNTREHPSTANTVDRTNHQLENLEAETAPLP

In general, EC50 refers to the concentration at which the effect is half-maximal. Turning to `CCCCCNC1c2ccccc2N(C)S(=O)(=O)c2ccccc21` (centres unmarked) [compound 8, 6-Methyl-11-(pentylamino)-6,11-dihydrodibenzo[c,f][1,2]thiazepine 5,5-dioxide], the EC50 on Mouse MOR and at Human MOR (setting [2]) was less than 10 µM each time.

With `CCOC(=O)CCCCNC1c2ccccc2N(C)S(=O)(=O)c2cc(Cl)ccc21` (centres unmarked) [compound 17, Ethyl 5-((3-chloro-6-methyl-5,5-dioxido-6,11-dihydrodibenzo[c,f][1,2]thiazepin-11-yl)amino)pentanoate], the half-maximal effective concentration (EC50) at Mouse MOR and at Human MOR (setting [2]) was less than 10 µM in each case.

`CN1c2ccccc2C(NCCCCC(=O)O)c2ccc(Cl)cc2S1(=O)=O` (centres unmarked) [compound 18, 5-((3-Chloro-6-methyl-5,5-dioxido-6,11-dihydrodibenzo[c,f][1,2]thiazepin-11-yl)amino)pentanoic acid]: the concentration giving a half-maximal response (EC50) on Mouse MOR and on Human MOR (setting [2]) was less than 10 µM each time.

With `CCCCCNC1c2ccccc2N(C)S(=O)(=O)c2cc(Cl)ccc21` (centres unmarked) [compound 19, 3-Chloro-6-methyl-11-(pentylamino)-6,11-dihydrodibenzo [c,f][1,2]thiazepine 5,5-dioxide], the EC50 at Mouse MOR and at Human MOR (setting [2]) was less than 10 µM in each case.

Take `CNC1c2ccccc2N(C)S(=O)(=O)c2cc(Cl)ccc21` (centres unmarked) [compound 20, 3-Chloro-6-methyl-11-(methylamino)-6,11-dihydrodibenzo [c,f][1,2]thiazepine 5,5-dioxide]: the EC50 on Mouse MOR and at Human MOR (setting [2]) was less than 10 µM in each case.

Regarding `CCCNC1c2ccccc2N(C)S(=O)(=O)c2cc(Cl)ccc21` (centres unmarked) [compound 21, 3-Chloro-6-methyl-11-(propylamino)-6,11-dihydrodibenzo [c,f][1,2]thiazepine 5,5-dioxide], the EC50 on Mouse MOR and on Human MOR (setting [2]) was less than 10 µM in each case.

Consider `CC(C)NC1c2ccccc2N(C)S(=O)(=O)c2cc(Cl)ccc21` (centres unmarked) [compound 22, 3-Chloro-11-(isopropylamino)-6-methyl-6,11-dihydrodibenzo [c,f][1,2]thiazepine 5,5-dioxide], for which the half-maximal effective concentration (EC50) on Mouse MOR and at Human MOR (setting [2]) was less than 10 µM throughout.

Broadly, the AUC(0-t) is the area under the concentration-time curve up to a stated or last time point. Lower therefore signals less exposure. A word on the Cmax: it is the peak of the concentration-time curve. Usually MRT last stands for a mean duration of stay, worked out from the concentration-time curve. The half-life is how long it takes for the measured level to halve. Higher therefore signals slow loss. Usually Tmax stands for the time from dosing to the highest level. In data set [1] (setting [3]), `COCCCNC1c2ccccc2N(C)S(=O)(=O)c2cc(Cl)ccc21` (centres unmarked) [compound 23, 3-Chloro-11-((3-methoxypropyl)amino)-6-methyl-6,11-dihydrodibenzo [c,f][1,2]thiazepine 5,5-dioxide] gave an AUClast of 335.03 ng·h/g and a CL of 260.44 mL/min/kg. Also, in data set [1] (setting [4]), the “half-life compared with tianeptine” value is given as “much longer half-life” and the “systemic exposure (AUC) compared with tianeptine” value is listed as “higher systemic exposure (AUC)”. In data set [1] (setting [5]), the AUC(0-t) was 3060 ng·h/mL; the peak concentration (Cmax) is 1540 ng/mL and 378 ng/g. For the same compound, in data set [1] (setting [6]), the mean residence time (MRT last) was determined as 1.27 h and the Tmax turned out to be 0.08 h. Also, in data set [1] (setting [7]), the MRT last was found to be 2.29 h and the Tmax is 0.25 h. The half-life in data set [1] (male, C57BL/6, mouse, in vivo, ip, 10 mg/kg, T1/2, brain, i.p. 10 mg/kg, male C57BL/6 mice) was 5.12 h. In data set [1] (male, C57BL/6, mouse, in vivo, ip, 10 mg/kg, T1/2, plasma, i.p. 10 mg/kg, male C57BL/6 mice), the half-life was 3.93 h. This compound had a CL in data set [1] (plasma, i.p. 10 mg/kg, male C57BL/6 mice) of 44.27 mL/min/kg.

On to `COCCCNC1c2ccccc2N(C)S(=O)(=O)c2cc(SC)ccc21` (centres unmarked) [compound 44, 11-((3-Methoxypropyl)amino)-6-methyl-3-(methylthio)-6,11-dihydrodibenzo[c,f][1,2]thiazepine 5,5-dioxide], for which the EC50 at Mouse MOR and at Human MOR (setting [2]) was less than 10 µM throughout.

As for `COCCCNC1c2ccc(Cl)cc2N(C)S(=O)(=O)c2ccccc21` (centres unmarked) [compound 69, 8-Chloro-11-((3-methoxypropyl)amino)-6-methyl-6,11-dihydrodibenzo [c,f][1,2]thiazepine 5,5-dioxide], the EC50 on Human MOR (setting [2]) is less than 20 µM.

`COCCCNC1c2ccc(Br)cc2S(=O)(=O)N(C)c2ccsc21` (centres unmarked) [compound 72, 7-Bromo-10-((3-methoxypropyl)amino)-4-methyl-4, 10-dihydrobenzo[f]thieno[3,2-c][1,2]thiazepine 5,5-dioxide]: at Human MOR (setting [2]), the EC50 was less than 10 µM.

Regarding `CCOCCCNC1c2ccc(Br)cc2S(=O)(=O)N(C)c2ccsc21` (centres unmarked) [compound 73, 7-Bromo-10-((3-ethoxypropyl)amino)-4-methyl-4, 10-dihydrobenzo[f]thieno[3,2-c][1,2]thiazepine 5,5-dioxide], the 50% effective concentration (EC50) on Human MOR (setting [2]) is less than 10 µM.

As for `CCOC(=O)CCCCCCNC1c2ccc(Br)cc2S(=O)(=O)N(C)c2ccsc21` (centres unmarked) [compound 74, Ethyl 7-((7-bromo-4-methyl-5,5-dioxido-4, 10-dihydrobenzo[f]thieno[3,2-c][1,2]thiazepin-10-yl)amino)heptanoate], the EC50 at Human MOR (setting [2]) was less than 10 µM.

With `COCCCNC1c2ccccc2N(C)S(=O)(=O)c2cc(OCc3ccccc3)ccc21` (centres unmarked) [compound 75, 3-(Benzyloxy)-11-((3-methoxypropyl)amino)-6-methyl-6,11-dihydrodibenzo[c,f][1,2]thiazepine 5,5-dioxide], at Human MOR (setting [2]), the EC50 is greater than 20 µM.

In the case of `COCCCNC1c2ccc(Cl)cc2S(=O)(=O)N(C)c2ccsc21` (centres unmarked) [compound 77, 7-Chloro-10-((3-methoxypropyl)amino)-4-methyl-4, 10-dihydrobenzo[f]thieno[3,2-c][1,2]thiazepine 5,5-dioxide], the half-maximal effective concentration (EC50) on Human MOR (setting [2]) is less than 10 µM.

As to `CCOCCCNC1c2ccc(Cl)cc2S(=O)(=O)N(C)c2ccsc21` (centres unmarked) [compound 78, 7-Chloro-10-((3-ethoxypropyl)amino)-4-methyl-4, 10-dihydrobenzo[f]thieno[3,2-c][1,2]thiazepine 5,5-dioxide], the half-maximal effective concentration (EC50) at Human MOR (setting [2]) is less than 10 µM.

Take `CCOC(=O)CCCCCCNC1c2ccc(Cl)cc2S(=O)(=O)N(C)c2ccsc21` (centres unmarked) [compound 79, Ethyl 7-((7-chloro-4-methyl-5,5-dioxido-4, 10-dihydrobenzo[f]thieno[3,2-c][1,2]thiazepin-10-yl)amino)heptanoate]: the concentration for a half-maximal effect (EC50) on Human MOR (setting [2]) was less than 10 µM.

As to `CN1c2ccccc2C(NCCCCCCC(=O)O)c2ccc(I)cc2S1(=O)=O` (centres unmarked) [compound 84, 7-((3-Iodo-6-methyl-5,5-dioxido-6,11-dihydrodibenzo [c,f][1,2]thiazepin-11-yl)amino)heptanoic acid hydrochloride salt], the response at Human MOR was half-maximal at 0.04 µM (EC50).
